Measured values taken from patent US20240279205A1, “NOVEL BENZIMIDAZOLE DERIVATIVE” (Carna Biosciences, Inc., priority 2020, published 2024).
Counter-ions that a name gives are not always drawn.

target: T1, human STING (hSTING) (Homo sapiens, UniProt Q86WV6); experiment: Inhibition test of intracellular human STING (hSTING) pathway using SEAP reporter cells (HEK-Blue ISG), stimulation with Compound 3; type: cell-based; parameters: hSTING inhibitory activity: scale not given here; settings: Compound 3 10 nM stimulation, 21 hours
T1 construct: host or cells: HEK-Blue ISG cells (HEK293-derived SEAP reporter line)
T1 sequence (Q86WV6 whole entry H232R): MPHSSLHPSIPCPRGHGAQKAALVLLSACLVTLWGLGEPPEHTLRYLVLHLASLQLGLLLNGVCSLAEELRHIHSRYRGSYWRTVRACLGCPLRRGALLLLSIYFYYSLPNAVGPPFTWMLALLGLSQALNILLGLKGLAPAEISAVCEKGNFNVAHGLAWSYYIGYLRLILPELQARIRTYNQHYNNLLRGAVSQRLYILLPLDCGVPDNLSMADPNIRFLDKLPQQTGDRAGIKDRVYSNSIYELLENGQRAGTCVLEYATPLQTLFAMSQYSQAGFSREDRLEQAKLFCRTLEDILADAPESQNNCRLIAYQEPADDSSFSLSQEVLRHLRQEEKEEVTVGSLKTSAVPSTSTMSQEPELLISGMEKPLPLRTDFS
Protocol: Inhibition test of intracellular human STING (hSTING) pathway using reporter cells
Since STING activates the transcription factor IRF3 upon ligand stimulation, the activity of STING can be evaluated by a reporter assay using a secretory alkaline phosphatase (SEAP reporter) integrated downstream of an IRF-inducible promoter.
That is, the hSTING inhibitory activity of the test compound was evaluated using HEK-Blue™MISG cells (manufactured by Invivogen, #hkb-isg-1) incorporating a SEAP reporter. Activation of hSTING was performed by stimulation with the small molecule ligand Compound 3 as described in the literature (Ramanjulu, J. M., et al., Nature. 2018, 564 (7736), 439-443). HEK-Blue™MISG cells were seeded in a 96-well plate and cultured overnight at 37° C. in a 5% CO2 incubator. To each well of this cell culture plate, a test compound solution adjusted to a final concentration of 0.1 to 10 µM of the test compound was added, cultured for 1 hour in a CO2 incubator, and then Compound 3 (final concentration 10 nM) was added and further cultured in a CO2 incubator for 21 hours. After collecting the culture supernatant of each well, the reporter activity was measured by color development reaction with alkaline phosphatase.
The reporter activity of the test compound non-addition and Compound 3 addition group was set to 100%, and the reporter activity of the test compound non-addition and Compound 3 non-addition group was set to 0%. The IC50 value was determined by regression analysis of the inhibitory rate determined from the reporter activity at each compound concentration and the test compound concentration (logarithm).

SMILES | hSTING inhibitory activity
COC(=O)c1ccc2[nH]c(Nc3c[nH]c4ccc(Br)nc34)nc2c1 [Embodiment 34, methyl 2-[(5-bromo-1H-pyrrolo[3,2-b]pyridin-3-yl)amino]-1H-benzo[d]imidazole-5-carboxylate] | * *
Cn1c(Nc2c[nH]c3ccc(Br)cc23)nc2ccc(Oc3ccccc3)cc21 [Embodiment 39, N-(5-bromo-1H-indol-3-yl)-1-methyl-6-phenoxy-1H-benzo[d]imidazol-2-amine] | * *
Cn1c(Nc2c[nH]c3ccc(Br)nc23)nc2ccc(Oc3ccccc3)cc21 [Embodiment 40, N-(5-bromo-1H-pyrrolo[3,2-b]pyridin-3-yl)-1-methyl-6-phenoxy-1H-benzo[d]imidazol-2-amine] | * * *
Cn1c(Nc2c[nH]c3ccc(Br)nc23)nc2cc(Oc3ccccc3)ccc21 [Embodiment 41, N-(5-bromo-1H-pyrrolo[3,2-b]pyridin-3-yl)-1-methyl-5-phenoxy-1H-benzo[d]imidazol-2-amine] | * * *
Cn1c(Nc2c[nH]c3ccc(Br)nc23)nc2cc(C(F)(F)F)ccc21 [Embodiment 43, N-(5-bromo-1H-pyrrolo[3,2-b]pyridin-3-yl)-1-methyl-5-(trifluoromethyl)-1H-benzo[d]imidazol-2-amine] | * * *
c1ccc(Oc2ccc3[nH]c(Nc4c[nH]c5cc(-c6ccccc6)cnc45)nc3c2)cc1 [Embodiment 51, 5-phenoxy-N-(6-phenyl-1H-pyrrolo[3,2-b]pyridin-3-yl)-1H-benzo[d]imidazol-2-amine] | * *
FC(F)(F)c1ccc2[nH]cc(Nc3nc4cc(Oc5ccccc5)ccc4[nH]3)c2n1 [Embodiment 55, 5-phenoxy-N-[5-(trifluoromethyl)-1H-pyrrolo[3,2-b]pyridin-3-yl]-1H-benzo[d]imidazol-2-amine] | * *
Brc1ccc2[nH]cc(Nc3nc4c(-c5ccccc5)cccc4[nH]3)c2n1 [Embodiment 62, N-(5-bromo-1H-pyrrolo[3,2-b]pyridin-3-yl)-4-phenyl-1H-benzo [d]imidazol-2-amine] | * *
Cn1nccc1Oc1ccc2[nH]c(Nc3c[nH]c4ccc(Br)nc34)nc2c1 [Embodiment 63, N-(5-bromo-1H-pyrrolo[3,2-b]pyridin-3-yl)-5-[(1-methyl-1H-pyrazol-5-yl)oxy]-1H-benzo[d] imidazol-2-amine] | * *
CN(C)c1cccc(Oc2ccc3[nH]c(Nc4c[nH]c5ccc(Br)nc45)nc3c2)c1 [Embodiment 65, N-(5-bromo-1H-pyrrolo[3,2-b]pyridin-3-yl)-5-[3-(dimethylamino)phenoxy]-1H-benzo[d]imidazol-2-amine] | * *
CS(=O)(=O)c1cccc(Oc2ccc3[nH]c(Nc4c[nH]c5ccc(Br)nc45)nc3c2)c1 [Embodiment 67, N-(5-bromo-1H-pyrrolo[3,2-b]pyridin-3-yl)-5-[3-(methylsulfonyl)phenoxy]-1H-benzo[d]imidazol-2-amine] | * *
Brc1ccc2[nH]cc(Nc3nc4cc(OCc5ccccc5)ccc4[nH]3)c2n1 [Embodiment 69, 5-(benzyloxy)-N-(5-bromo-1H-pyrrolo[3,2-b]pyridin-3-yl)-1H-benzo[d]imidazol-2-amine] | * *
Cn1cc(-c2ccnc3c(Nc4nc5cc(Oc6ccccc6)ccc5[nH]4)c[nH]c23)cn1 [Embodiment 71, N-[7-(1-methyl-1H-pyrazol-4-yl)-1H-pyrrolo[3,2-b]pyridin-3-yl]-5-phenoxy-1H-benzo[d]imidazole-2-amine formate] | * *
CN(c1ccccc1)S(=O)(=O)c1ccc2[nH]c(Nc3c[nH]c4ccc(Cl)nc34)nc2c1 [Embodiment 75, 2-[(5-Chloro-1H-pyrrolo[3,2-b]pyridin-3-yl)amino]-N-methyl-N-phenyl-1H-benzo[d]imidazole-5-sulfonamide] | * *
Cc1ccc2[nH]c(Nc3c[nH]c4ccc(Cl)nc34)nc2c1C [Embodiment 85, N-(5-Chloro-1H-pyrrolo[3,2-b]pyridin-3-yl)-4,5-dimethyl-1H-benzo[d]imidazol-2-amine] | * *
Clc1ccc2[nH]cc(Nc3nc4cc(-c5ccncc5)ccc4[nH]3)c2n1 [Embodiment 96, N-(5-Chloro-1H-pyrrolo[3,2-b]pyridin-3-yl)-5-(pyridin-4-yl)-1H-benzo[d]imidazol-2-amine] | * *

same assay, conditions: Compound 3 10 nM stimulation, 21 hours, read-out: hSTING inhibitory activity

SMILES | IC50 [µM]
O=C(O)c1ccc2[nH]c(Nc3c[nH]c4ccc(Br)nc34)nc2c1 [Embodiment 37, 2-[(5-bromo-1H-pyrrolo[3,2-b]pyridin-3-yl)amino]-1H-benzo[d]imidazole-5-carboxylic acid] | ≥ 10
Cn1c(Nc2c[nH]c3ccc(Br)nc23)nc2ccc(C(F)(F)F)cc21 [Embodiment 42, N-(5-bromo-1H-pyrrolo[3,2-b]pyridin-3-yl)-1-methyl-6-(trifluoromethyl)-1H-benzo[d]imidazol-2-amine] | ≥ 10
Cn1c(Nc2c[nH]c3ccc(Cl)nc23)nc2ccc(C(F)(F)F)cc21 [Embodiment 46, N-(5-Chloro-1H-pyrrolo[3,2-b]pyridin-3-yl)-1-methyl-6-(trifluoromethyl)-1H-benzo[d] imidazol-2-amine] | ≥ 10
C1=C(c2ccc3[nH]cc(Nc4nc5cc(Oc6ccccc6)ccc5[nH]4)c3n2)CCCC1 [Embodiment 48, N-[5-(Cyclohex-1-en-1-yl)-1H-pyrrolo[3,2-b]pyridin-3-yl]-5-phenoxy-1H-benzo[d]imidazol-2-a mine] | 1 to 10
Brc1cnc2c(Nc3nc4cc(Oc5ccccc5)ccc4[nH]3)c[nH]c2c1 [Embodiment 49, N-(6-bromo-1H-pyrrolo[3,2-b]pyridin-3-yl)-5-phenoxy-1H-benzo[d]imidazol-2-amine] | 1 to 10
COc1cccc2[nH]c(Nc3c[nH]c4ccc(Br)nc34)nc12 [Embodiment 61, N-(5-bromo-1H-pyrrolo[3,2-b]pyridin-3-yl)-4-methoxy-1H-benzo[d]imidazol-2-amine] | 1 to 10
CS(=O)(=O)c1ccc(Oc2ccc3[nH]c(Nc4c[nH]c5ccc(Br)nc45)nc3c2)cc1 [Embodiment 66, N-(5-bromo-1H-pyrrolo[3,2-b]pyridin-3-yl)-5-[4-(methylsulfonyl)phenoxy]-1H-benzo[d]imidazol-2-amine] | 1 to 10
CS(=O)(=O)c1ccccc1Oc1ccc2[nH]c(Nc3c[nH]c4ccc(Br)nc34)nc2c1 [Embodiment 68, N-(5-bromo-1H-pyrrolo[3,2-b]pyridin-3-yl)-5-[2-(methylsulfonyl)phenoxy]-1H-benzo[d]imidazol-2-amine] | ≥ 10
CN(C)c1ccnc2c(Nc3nc4cc(Oc5ccccc5)ccc4[nH]3)c[nH]c12 [Embodiment 70, N7,N7-dimethyl-N3-(5-phenoxy-1H-benzo[d]imidazol-2-yl)-1H-pyrrolo[3,2-b]pyridine-3,7-diamine formate] | ≥ 10
FC(F)(F)c1cnc2[nH]cc(Nc3nc4cc(Oc5ccccc5)ccc4[nH]3)c2c1 [Embodiment 74, 5-phenoxy-N-[5-(trifluoromethyl)-1H-pyrrolo[2,3-b]pyridin-3-yl]-1H-benzo[d]imidazol-2-amine formate] | 1 to 10
Oc1ccnc2c(Nc3nc4cc(Oc5ccccc5)ccc4[nH]3)c[nH]c12 [Embodiment 76, 3-[(5-phenoxy-1H-benzo[d]imidazol-2-yl)amino]-1H-pyrrolo [3,2-b]pyridin-7-ol formate] | ≥ 10
CN(C)Cc1cccc(Oc2ccc3[nH]c(Nc4c[nH]c5ccc(Cl)nc45)nc3c2)c1 [Embodiment 81, N-(5-chloro-1H-pyrrolo[3,2-b]pyridin-3-yl)-5-{3-[(dimethylamino)methyl]phenoxy}-1H-benzo [d]imidazole-2-amine formate] | 1 to 10
CN(C)Cc1ccccc1Oc1ccc2[nH]c(Nc3c[nH]c4ccc(Cl)nc34)nc2c1 [Embodiment 83, N-(5-chloro-1H-pyrrolo[3,2-b]pyridin-3-yl)-5-{2-[(dimethylamino)methyl]phenoxy}-1H-benzo [d]imidazole-2-amine formate] | ≥ 10
CCCCn1c(Nc2c[nH]c3ccc(Br)nc23)nc2cc(Oc3ccccc3)ccc21 [Embodiment 90, N-(5-bromo-1H-pyrrolo[3,2-b]pyridin-3-yl)-1-butyl-5-phenoxy-1H-benzo[d]imidazol-2-amine] | 1 to 10
COCCn1c(Nc2c[nH]c3ccc(Br)nc23)nc2cc(Oc3ccccc3)ccc21 [Embodiment 92, N-(5-bromo-1H-pyrrolo[3,2-b]pyridin-3-yl)-1-(2-methoxyethyl)-5-phenoxy-1H-benzo[d]imidazol-2-amine] | 1 to 10
Clc1ccc2[nH]cc(Nc3nc4cc(-c5cccnc5)ccc4[nH]3)c2n1 [Embodiment 97, N-(5-Chloro-1H-pyrrolo[3,2-b]pyridin-3-yl)-5-(pyridin-3-yl)-1H-benzo[d]imidazol-2-amine] | 1 to 10
Clc1ccc2[nH]cc(Nc3nc4cc(-c5ccc(CN6CCOCC6)cc5)ccc4[nH]3)c2n1 [Embodiment 98, N-(5-Chloro-1H-pyrrolo[3,2-b]pyridin-3-yl)-5-[4-(morpholinomethyl)phenyl]-1H-benzo[d] imidazol-2-amine] | ≥ 10
